Experimental findings from patent US20240158446A1, “CYCLIC COMPOUND HAVING SELECTIVE INHIBITORY ACTION ON KRAS OVER HRAS AND NRAS” (CHUGAI SEIYAKU KABUSHIKI KAISHA, priority 2021, published 2024) are described below.

Assay [1] deals with GDP-bound KRAS wild-type protein (Homo sapiens, UniProt P01116). Description: Binding to KRAS by surface plasmon resonance (SPR), Single Cycle Kinetics. The following applies: SPR, Single Cycle Kinetics, GDP-bound KRAS wild-type protein; read-out: KRAS KD.
Assay [2] concerns the target GDP-bound NRAS wild-type protein (Homo sapiens, UniProt P01111). Description: Binding to NRAS by surface plasmon resonance (SPR), Single Cycle Kinetics. Conditions: ratio of KD for GDP-bound NRAS wild-type protein to KD for KRAS, SPR.
Assay [3] addresses GDP-bound HRAS wild-type protein (Homo sapiens, UniProt P01112). Description: Binding to HRAS by surface plasmon resonance (SPR), Single Cycle Kinetics. Conditions: ratio of KD for GDP-bound HRAS wild-type protein to KD for KRAS, SPR.
Assay [4] concerns human lung cancer strain NCI-H441. In words: cells. Conditions: NCI-H441, 96 h, read-out: NCI-H441 IC50 (nM), NCI-H441 cell proliferation, 4 days, CellTiter-Glo.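 Note: cell proliferation inhibition after four days measured by CellTiter-Glo.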

GDP-bound HRAS wild-type protein, sequence (P01112 whole entry): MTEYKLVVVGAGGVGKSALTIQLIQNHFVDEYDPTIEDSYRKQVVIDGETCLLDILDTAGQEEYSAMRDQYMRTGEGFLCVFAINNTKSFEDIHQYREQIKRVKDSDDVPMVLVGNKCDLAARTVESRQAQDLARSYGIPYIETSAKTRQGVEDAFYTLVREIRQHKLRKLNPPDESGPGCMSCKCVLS
GDP-bound KRAS wild-type protein, sequence (P01116 whole entry): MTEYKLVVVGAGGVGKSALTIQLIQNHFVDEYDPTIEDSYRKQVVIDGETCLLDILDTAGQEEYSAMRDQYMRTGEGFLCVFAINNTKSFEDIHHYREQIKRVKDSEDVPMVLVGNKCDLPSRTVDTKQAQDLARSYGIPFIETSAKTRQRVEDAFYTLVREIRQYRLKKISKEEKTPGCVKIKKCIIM
GDP-bound NRAS wild-type protein, sequence (P01111 whole entry): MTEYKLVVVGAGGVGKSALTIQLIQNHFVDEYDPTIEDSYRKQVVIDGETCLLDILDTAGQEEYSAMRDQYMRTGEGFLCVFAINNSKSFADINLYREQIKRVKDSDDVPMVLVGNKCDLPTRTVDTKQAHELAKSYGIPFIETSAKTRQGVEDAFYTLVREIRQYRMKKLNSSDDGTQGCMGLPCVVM

Take `CCO[C@@H]1C[C@H]2C(=O)NC3(CC(F)(F)C3)C(=O)N(C)[C@@H](C(CC)CC)C(=O)N3CCC[C@@H]3CC(=O)N(C)[C@@H](CC)C(=O)N[C@@H]([C@@H](C)CC)C(=O)N(C)CC(=O)N(C)[C@H]3C/C=C\CCN(C3=O)[C@@H](Cc3ccc(C(F)(F)F)cc3)C(=O)N(C)CC(=O)N[C@@H](CCc3cc(F)c(C(F)(F)F)c(F)c3)C(=O)N2C1` [PP1608]: in assay [1], the Kd was 0.67 nM. In addition, in assay [2], the “NRAS/KRAS (KD ratio)” value was “A (a compound having 10 or more and less than 20 is denoted as A)”. Further, in assay [3], the “HRAS/KRAS (KD ratio)” value was “A (a compound having 10 or more and less than 20 is denoted as A)”. The IC50 in assay [4] is 70.1 nM.

As to `CCO[C@@H]1C[C@H]2C(=O)NC3(CC(F)(F)C3)C(=O)N(C)[C@@H](C3CCCC3)C(=O)N3CCC[C@@H]3CC(=O)N(C)[C@@H](CC)C(=O)N[C@@H]([C@@H](C)CC)C(=O)N(C)CC(=O)N(C)[C@H]3C/C=C\CCN(C3=O)[C@@H](Cc3ccc(C(F)(F)F)cc3)C(=O)N(C)CC(=O)N[C@@H](CCc3cc(F)c(C(F)(F)F)c(F)c3)C(=O)N2C1` [PP1609], in assay [1], the dissociation constant Kd is 0.2 nM. For the same molecule, the “NRAS/KRAS (KD ratio)” value in assay [2] is “A (a compound having 10 or more and less than 20 is denoted as A)”. Also, the “HRAS/KRAS (KD ratio)” value in assay [3] is “A (a compound having 10 or more and less than 20 is denoted as A)”. Moreover, the IC50 in assay [4] amounted to 37 nM.

Consider `CCC[C@H]1C(=O)N[C@@H]([C@@H](C)CC)C(=O)N(C)CC(=O)N(C)[C@H]2C/C=C\CCN(C2=O)[C@@H](Cc2ccc(C)cc2)C(=O)N(C)CC(=O)N[C@@H](CCc2ccc(C(F)(F)F)c(Cl)c2)C(=O)N2C[C@@H](C)C[C@H]2C(=O)NC2(CCC2)C(=O)N(C)[C@@H](C2CCCC2)C(=O)N(C)[C@H](C(=O)N(C)CC)CC(=O)N1C` [PP1848], for which, in assay [1], the dissociation constant (Kd) was determined as 0.11 nM. Further, the IC50 in assay [4] was 22.5 nM.

Take `CC[C@H](C)[C@@H]1NC(=O)[C@H](CC(F)F)N(C)C(=O)C[C@@H](C(=O)N(C)C)N(C)C(=O)[C@H](C2CCCC2)N(C)C(=O)C2(CC(C)(C)C2)NC(=O)[C@@H]2C[C@H](C)CN2C(=O)[C@H](CCc2ccc(C(F)(F)F)c(OC)c2)NC(=O)CN(C)C(=O)[C@H](Cc2ccc(C)cc2)N2CC/C=C\C[C@@H](C2=O)N(C)C(=O)CN(C)C1=O` [PP1875]: the Kd in assay [1] was determined as 0.083 nM. Moreover, the IC50 in assay [4] was 7.7 nM.

For the molecule `CC[C@H](C)[C@@H]1NC(=O)[C@H](CC)N(C)C(=O)C[C@@H](C(=O)N(C)CC)N(C)C(=O)[C@H](C2CCCC2)N(C)C(=O)C2(CC(C)(C)C2)NC(=O)[C@@H]2C[C@H](C)CN2C(=O)[C@H](CCc2cc(F)c(C(F)(F)F)c(F)c2)NC(=O)CN(C)C(=O)[C@H](Cc2ccc(C)cc2)N2CC/C=C\C[C@@H](C2=O)N(C)C(=O)CN(C)C1=O` [PP1882], the equilibrium dissociation constant (Kd) in assay [1] turned out to be 0.12 nM. For the same molecule, the IC50 in assay [4] worked out at 20.2 nM.

As for `CC[C@H](C)[C@@H]1NC(=O)[C@H](CC2CC2)N(C)C(=O)C[C@@H](C(=O)N(C)CC)N(C)C(=O)[C@H](C2CCCC2)N(C)C(=O)C2(CCC2)NC(=O)[C@@H]2C[C@@H](C)CN2C(=O)[C@H](CCc2ccc(C(F)(F)F)c(OC)c2)NC(=O)CN(C)C(=O)[C@H](Cc2ccc(C)cc2)N2CC/C=C\C[C@@H](C2=O)N(C)C(=O)CN(C)C1=O` [PP1900], the equilibrium dissociation constant (Kd) in assay [1] was 0.17 nM. For the same molecule, the IC50 in assay [4] turned out to be 24.7 nM.

`CCO[C@@H]1C[C@H]2C(=O)NC3(CC(C)(C)C3)C(=O)N(C)[C@@H](C3CCCC3)C(=O)N(C)[C@H](C(=O)N(C)CC)CC(=O)N(C)[C@@H](C3CCC3)C(=O)N[C@@H]([C@@H](C)CC)C(=O)N(C)CC(=O)N(C)[C@H]3C/C=C\CCN(C3=O)[C@@H](Cc3ccc(C(F)(F)F)cc3)C(=O)N(C)CC(=O)N[C@@H](CCc3ccc(C(F)(F)F)c(OC)c3)C(=O)N2C1` [PP1985]: the equilibrium dissociation constant (Kd) in assay [1] was determined as 0.23 nM. In addition, the “HRAS/KRAS (KD ratio)” value in assay [3] was “B (a compound having 3 or more and less than 10 is denoted as B)”. The IC50 in assay [4] came to 17.7 nM.

Take `CCCOC[C@H]1C(=O)N[C@@H]([C@@H](C)CC)C(=O)N(C)CC(=O)N(C)[C@H]2C/C=C\CCN(C2=O)[C@@H](Cc2ccc(C(F)(F)F)cc2)C(=O)N(C)CC(=O)N[C@@H](CCc2cc(F)c(C(F)(F)F)c(F)c2)C(=O)N2C[C@@H](C)C[C@H]2C(=O)NC2(CCC2)C(=O)N(C)[C@@H](C2CCCC2)C(=O)N(C)[C@H](C(=O)N(C)CCC)CC(=O)N1C` [PP2008]: the “NRAS/KRAS (KD ratio)” value in assay [2] is “A (a compound having 10 or more and less than 20 is denoted as A)”. The “HRAS/KRAS (KD ratio)” value in assay [3] was “A (a compound having 10 or more and less than 20 is denoted as A)”. In addition, the IC50 in assay [4] amounted to 15.2 nM.

As for `CCCOC[C@H]1C(=O)N[C@@H]([C@@H](C)CC)C(=O)N(C)CC(=O)N(C)[C@H]2C/C=C\CCN(C2=O)[C@@H](Cc2ccc(C(F)(F)F)cc2)C(=O)N(C)CC(=O)N[C@@H](CCc2ccc(C(F)(F)F)c(OC)c2)C(=O)N2C[C@H](OCC)C[C@H]2C(=O)NC2(CCC2)C(=O)N(C)[C@@H](C2CCCC2)C(=O)N(C)[C@H](C(=O)N(C)CCC)CC(=O)N1C` [PP2017], in assay [2], the “NRAS/KRAS (KD ratio)” value was “A (a compound having 10 or more and less than 20 is denoted as A)”. The “HRAS/KRAS (KD ratio)” value in assay [3] was “A (a compound having 10 or more and less than 20 is denoted as A)”. For the same molecule, the IC50 in assay [4] amounted to 2.5 nM.

With `CCO[C@@H]1C[C@H]2C(=O)NC3(CCC3)C(=O)N(C)[C@@H](C3CCCC3)C(=O)N(C)[C@H](C(=O)N(C)CC)CC(=O)N(C)[C@@H](C3CCC3)C(=O)N[C@@H]([C@@H](C)CC)C(=O)N(C)CC(=O)N(C)[C@H]3C/C=C\CCN(C3=O)[C@@H](Cc3ccc(C(F)(F)F)cc3)C(=O)N(C)CC(=O)N[C@@H](CCc3ccc(C(F)(F)F)c(OC)c3)C(=O)N2C1` [PP2022], the “NRAS/KRAS (KD ratio)” value in assay [2] is “A (a compound having 10 or more and less than 20 is denoted as A)”. In addition, the “HRAS/KRAS (KD ratio)” value in assay [3] is “A (a compound having 10 or more and less than 20 is denoted as A)”. For the same molecule, in assay [4], the IC50 was 2.7 nM.

Consider `CCCN(C)C(=O)[C@@H]1CC(=O)N(C)[C@@H](C2CCC2)C(=O)N[C@@H]([C@@H](C)CC)C(=O)N(C)CC(=O)N(C)[C@H]2C/C=C\CCN(C2=O)[C@@H](Cc2ccc(C(F)(F)F)cc2)C(=O)N(C)CC(=O)N[C@@H](CCc2ccc(C(F)(F)F)c(OC)c2)C(=O)N2C[C@H](OCC)C[C@H]2C(=O)NC2(CCC2)C(=O)N(C)[C@@H](C2CCCC2)C(=O)N1C` [PP2023], for which, in assay [2], the “NRAS/KRAS (KD ratio)” value was “A (a compound having 10 or more and less than 20 is denoted as A)”. Further, the “HRAS/KRAS (KD ratio)” value in assay [3] is “B (a compound having 3 or more and less than 10 is denoted as B)”. Moreover, the IC50 in assay [4] came out at 10.5 nM.

Turning to `CCCN(C)C(=O)[C@@H]1CC(=O)N(C)[C@@H](CC(F)F)C(=O)N[C@@H]([C@@H](C)CC)C(=O)N(C)CC(=O)N(C)[C@H]2C/C=C\CCN(C2=O)[C@@H](Cc2ccc(C(F)(F)F)cc2)C(=O)N(C)CC(=O)N[C@@H](CCc2ccc(C(F)(F)F)c(OC)c2)C(=O)N2C[C@@H](C)C[C@H]2C(=O)NC2(CCC2)C(=O)N(C)[C@@H](C2CCCC2)C(=O)N1C` [PP2024], in assay [2], the “NRAS/KRAS (KD ratio)” value is “A (a compound having 10 or more and less than 20 is denoted as A)”. The “HRAS/KRAS (KD ratio)” value in assay [3] was “B (a compound having 3 or more and less than 10 is denoted as B)”. In addition, the IC50 in assay [4] was determined as 10.1 nM.

On to `CCCN(C)C(=O)[C@@H]1CC(=O)N(C)[C@@H](COCC)C(=O)N[C@@H]([C@@H](C)CC)C(=O)N(C)CC(=O)N(C)[C@H]2C/C=C\CCN(C2=O)[C@@H](Cc2ccc(C(F)(F)F)cc2)C(=O)N(C)CC(=O)N[C@@H](CCc2ccc(C(F)(F)F)c(OC)c2)C(=O)N2C[C@@H](C)C[C@H]2C(=O)NC2(CCC2)C(=O)N(C)[C@@H](C2CCCC2)C(=O)N1C` [PP2025], for which, in assay [2], the “NRAS/KRAS (KD ratio)” value is “A (a compound having 10 or more and less than 20 is denoted as A)”. Also, the “HRAS/KRAS (KD ratio)” value in assay [3] is “B (a compound having 3 or more and less than 10 is denoted as B)”. Also, the IC50 in assay [4] turned out to be 13.4 nM.

Regarding `CCCOC[C@H]1C(=O)N[C@@H]([C@@H](C)CC)C(=O)N(C)CC(=O)N(C)[C@H]2C/C=C\CCN(C2=O)[C@@H](Cc2ccc(C(F)(F)F)cc2)C(=O)N(C)CC(=O)N[C@@H](CCc2ccc(C(F)(F)F)c(OC)c2)C(=O)N2C[C@@H](C)C[C@H]2C(=O)NC2(CCC2)C(=O)N(C)[C@@H](C2CCCC2)C(=O)N(C)[C@H](C(=O)N(C)CC)CC(=O)N1C` [PP2027], in assay [2], the “NRAS/KRAS (KD ratio)” value was “A (a compound having 10 or more and less than 20 is denoted as A)”. In addition, the “HRAS/KRAS (KD ratio)” value in assay [3] is “B (a compound having 3 or more and less than 10 is denoted as B)”. In addition, the IC50 in assay [4] came to 14 nM.

With `CCCOC[C@H]1C(=O)N[C@@H]([C@@H](C)CC)C(=O)N(C)CC(=O)N(C)[C@H]2C/C=C\CCN(C2=O)[C@@H](Cc2ccc(C(F)(F)F)cc2)C(=O)N(C)CC(=O)N[C@@H](CCc2ccc(C(F)(F)F)c(OC)c2)C(=O)N2C[C@@H](C)C[C@H]2C(=O)NC2(CCC2)C(=O)N(C)[C@@H](C2CCCC2)C(=O)N(C)[C@H](C(=O)N(C)CCC)CC(=O)N1C` [PP2028], the “NRAS/KRAS (KD ratio)” value in assay [2] was “A (a compound having 10 or more and less than 20 is denoted as A)”. The “HRAS/KRAS (KD ratio)” value in assay [3] was “B (a compound having 3 or more and less than 10 is denoted as B)”. The IC50 in assay [4] came out at 17.5 nM.

`CCCN(C)C(=O)[C@@H]1CC(=O)N(C)[C@@H](CCOC)C(=O)N[C@@H]([C@@H](C)CC)C(=O)N(C)CC(=O)N(C)[C@H]2C/C=C\CCN(C2=O)[C@@H](Cc2ccc(C(F)(F)F)cc2)C(=O)N(C)CC(=O)N[C@@H](CCc2ccc(C(F)(F)F)c(OC)c2)C(=O)N2C[C@@H](C)C[C@H]2C(=O)NC2(CCC2)C(=O)N(C)[C@@H](C2CCCC2)C(=O)N1C` [PP2029]: the “NRAS/KRAS (KD ratio)” value in assay [2] was “A (a compound having 10 or more and less than 20 is denoted as A)”. The “HRAS/KRAS (KD ratio)” value in assay [3] is “B (a compound having 3 or more and less than 10 is denoted as B)”. Also, in assay [4], the IC50 worked out at 18.9 nM.
